Assay: in vitro
Conditions: human, hela cells, % viability

SMILES | viability at 28.5 h, 10 µM [%] | viability at 28.5 h, 10 µM (bulk resorufin, single well) [%]
Cc1cc(O)nc(SCC(=O)Nc2cc([N+](=O)[O-])ccc2C)n1 [CBK267488] | 97.9 | 
CC(Sc1ccc(S(=O)(=O)N2CCN(C)CC2)cn1)C(=O)Nc1ccc(C(C)(C)C)cc1 (centres unmarked) [CBK297551] | 106 | 
NC(=O)Cn1cc(CNC2(c3ccccc3)CC2)c2ccccc21 [CBK282776] | 94.9 | 
COc1ccc(C2Nc3ccccc3C(=O)N2Cc2ccccc2)cc1COc1ccc([N+](=O)[O-])cc1 (centres unmarked) [CBK033690] | 86.9 | 
Cc1cc(C)n(CCOc2nonc2N)n1 [CBK025818] | 117 | 
CC(C)CC(=O)N1CCCn2nc(-c3ccncc3)cc2C1 [CBK288606] | 94.7 | 
O=c1[nH]cc(COCc2ccccc2)c(=O)[nH]1 [CBK261847] | 94 | 
COc1nc2nc(N)nc(N)c2nc1C [CBK025669] | 90.1 | 
COc1ccc([C@H]2CN(Cc3ccccc3)[C@@H]3CCN(C(=O)c4ccccc4)C[C@H]23)cc1 [CBK285550] | 86.6 | 
COc1cc(OC)cc(-c2c(C)ncnc2OC)c1 [CBK306765] | 91.4 | 
COc1cc(/C=C2\C(=O)NC(=S)N(c3cccc(C)c3C)C2=O)ccc1OC(C)C(=O)O (centres unmarked) [CBK265132] |  | 98.7
CC(C)NS(=O)(=O)c1ccc(OCC(=O)Nc2ccc3c(c2)OCCO3)cc1 [CBK265915] | 106 | 
COc1cc(NC(=O)C(C)Oc2ccc(Cl)cc2C)c(C(=O)O)cc1OC (centres unmarked) [CBK266430] | 86 | 
CCOC(=O)C1CCCN(S(=O)(=O)c2cc(C)c(Cl)cc2C)C1 (centres unmarked) [CBK044846] | 108 | 
CC(C)(C)OC(=O)N1CCN(S(=O)(=O)c2ccc(Cl)c([N+](=O)[O-])c2)CC1 [CBK003165] | 100 | 
CCc1nc2ccc(C(=O)NCCCN3CCCC3=O)cn2c1N(C)Cc1cccs1 [CBK145536] | 95 | 
CN(C)c1ccc(-c2nc(-c3cccc(OC(F)(F)F)c3)cnc2N)cc1 [CBK063942] | 98.3 | 
O=C(/C=C/c1cccc([N+](=O)[O-])c1)NC(=S)Nc1ccc(-c2nc3ncccc3o2)cc1 [CBK264391] | 99.2 | 
CS(=O)(=O)Nc1cc(-c2noc([C@@H]3CCCN3C3CCC3)n2)ccn1 [CBK288889] | 112 | 
CC(C)C[C@@H]1N[C@H](C(=O)NCC2CCOCC2)Cc2c[nH]c3cccc1c23 [CBK289427] | 103 | 
CC(Oc1ccc(C(C)(C)C)cc1)C(=O)Nc1nnc[nH]1 (centres unmarked) [CBK267431] | 94.8 | 
Cc1cc(C)n(-c2ccc3nnc(CCCC(=O)O)n3n2)n1 [CBK307630] | 87.1 | 
CC12CCC(C(=O)O)(c3nc4c(ccc5ncccc54)nc31)C2(C)C (centres unmarked) [CBK269470] | 91.1 | 

SMILES | viability at 28.5 h, 10 µM [%] | viability at 28.5 h, 10 µM (bulk resorufin, single well) [%]
Cc1nc(NS(=O)(=O)Cc2ccccc2[N+](=O)[O-])sc1C(=O)O [CBK045564] | 89.5 | 
Cn1nc(C2CCCCC2)cc1[C@H]1CN2CC[C@H]1C[C@@H]2CNC(=O)c1ccco1 [CBK289106] | 95.3 | 
COc1cc(CNCC2CCCO2)cc(Cl)c1OCC(N)=O (centres unmarked) [CBK270238C] | 88.4 | 
CC(C)CSc1nsc(N)n1 [CBK019938] | 97.1 | 
c1ccc(COc2cccc(CNCCN3CCOCC3)c2)cc1 [CBK278226C] | 95.8 | 
COc1ccc2nc(O)c(CN(c3ccccc3)S(=O)(=O)c3ccccc3)cc2c1 [CBK268093] | 97.7 | 
NCCNc1ccc([N+](=O)[O-])c(Sc2nc3ccccc3[nH]2)c1 [CBK265882] | 106 | 
Cc1c(CN(C)C(=O)c2cccc(NC(=O)C3CCCO3)c2)cnn1C (centres unmarked) [CBK305416] | 103 | 
Cn1nc(C(=O)NCc2ccccc2)cc1C(=O)NCc1ccccc1 [CBK270004] | 92 | 
COc1cc(C2CC(=O)N(c3cc(C)on3)C(=O)C2)cc(OC)c1OC [CBK006810] | 109 | 
CN1CCC(Cc2nc(-c3ccc(Cl)s3)n(CCO)n2)CC1 [CBK307025] | 100 | 
CC(C)C(NC(=O)C1CCC(C(C)(C)C)CC1)C(=O)O (centres unmarked) [CBK286610] | 95.5 | 
CN(C)Cc1cc(CN(C)C)c(O)c(C(C)(C)C)n1 [CBK260969] | 90.6 | 
COc1cccc(CC(=O)N2CCCC(c3cc4ncccc4[nH]3)C2)c1 (centres unmarked) [CBK283426] | 94.1 | 
Cc1ccc(-c2nnn(CC(=O)N(CCO)C(C(=O)NC3CCCC3)c3ccc(F)cc3)n2)o1 (centres unmarked) [CBK084756] | 89.2 | 
CCN(CC)C(=O)c1ccsc1NS(=O)(=O)c1cc(Br)ccc1OC [CBK042327] | 103 | 
N#CCCNS(=O)(=O)c1ccc(OC(F)(F)F)cc1 [CBK043560] | 97.9 | 
COc1cccc(C(=O)Nc2ccc(Br)cc2C(=O)O)c1 [CBK022487] | 98.7 | 
Cc1cc(S)c2cc(Br)ccc2n1 [CBK288445] | 80.5 | 
COc1ccc(/C=N/NS(C)(=O)=O)cc1 [CBK261981] | 108 | 
COc1ccc(C)cc1S(=O)(=O)N1CCN(C(c2ccccc2)c2ccccc2)CC1 [CBK263977] | 91.8 | 
CC(NC(=O)C1(Cn2ccnc2)CC1)c1cccnc1 (centres unmarked) [CBK306812] | 97.3 | 
CS(=O)(=O)c1ccc(-c2ccc(COC3CCN(C(=O)CCCc4ccc(F)cc4)CC3)cn2)cc1 [CBK162229T] | 91.6 | 

SMILES | viability at 28.5 h, 10 µM [%] | viability at 28.5 h, 10 µM (bulk resorufin, single well) [%]
Clc1nc2ccccc2nc1N1CCCC1 [CBK083596] | 101 | 
CN1CCN(c2cc(N3CCN(C(=O)c4ccc(F)cc4F)CC3)c([N+](=O)[O-])cc2F)CC1 [CBK265280] | 95.1 | 
O=C(Cc1ccc(Cl)cc1)Nc1cccc(C(=O)Nc2ccccc2C(=O)O)c1 [CBK264750] | 107 | 
O=C(O)c1ccc2c(c1)C(=O)N(C1=NCCS1)C2=O [CBK021809] | 89.6 | 
Cc1cc(Cl)ccc1NC(=O)CCC(=O)N/N=C/c1ccc(O)cc1 [CBK261974] | 89.6 | 
CN(CC(O)CO)C(=O)c1coc(COc2cccc(F)c2)n1 (centres unmarked) [CBK306854] | 88.5 | 
COc1ccc(C(c2ccccc2C)N(C)C(=O)C2CCN(C(C)=O)CC2)cn1 (centres unmarked) [CBK060490] | 90.8 | 
CC(C)(C)OC(=O)N1CCC[C@H]1C(=O)c1cccnc1 [CBK284280] | 99.3 | 
O=C(O)c1cc(C(=O)O)n(Cc2ccc(Cl)cc2Cl)n1 [CBK268283] | 103 | 
COCCN1CCn2c(nc3cc(NC(=O)c4ccco4)ccc32)C1 [CBK267990] | 88.2 | 
CCOC(=O)c1cnc2cc(C)ccn2c1=O [CBK086650] | 93.1 | 
Cc1scnc1CN1CCn2nc(C(O)Cc3ccccc3)cc2C1 (centres unmarked) [CBK307612] | 90.9 | 
COc1ccc2c(c1)cc(C(=O)N1CCCn3cncc3C1)n2C [CBK306516] | 96.1 | 
NS(=O)(=O)c1cccc2c1CC1(CC2)OCCO1 [CBK010703] | 84.6 | 
Cn1cc(C(CC(=O)O)C(=O)O)c2ccccc21 (centres unmarked) [CBK266231] | 98.9 | 
CC(=O)Nc1ccc(CNC(=O)CN(C)Cc2cc(C)on2)cc1 [CBK307042] | 82.4 | 
O=c1[nH]c(=O)c2cc(S(=O)(=O)Nc3ccccc3Cc3ccccc3)ccc2[nH]1 [CBK286377] | 94.3 | 
Cc1cnn(CCC(=O)NC(Cc2ccsc2)c2nccs2)c1 (centres unmarked) [CBK284664] | 88.4 | 
Cc1ccc(-c2nc(C3CCCN3C(=O)C3CC3C(=O)O)n3ccccc23)cc1 (centres unmarked) [CBK046559] | 79.8 | 
Cc1ccc2sc(NC(=O)c3ccc(Cl)s3)nc2c1C [CBK291144] | 103 | 
C=Cn1cc(CN2CCCC(O)(c3ccc(F)cc3)CC2)c(C)n1 (centres unmarked) [CBK285398] | 106 | 
CCOC(=O)N1CCN(C(=O)COc2cccc3ccccc23)CC1 [CBK262992] | 93 | 
COCCCOc1cc(NC(C)C)ncn1 [CBK115885] | 92.6 | 

SMILES | viability at 28.5 h, 10 µM [%] | viability at 28.5 h, 10 µM (bulk resorufin, single well) [%]
CSc1nnc2c(n1)[nH]c1ccccc12 [CBK025967] | 96.6 | 
CSc1ccc(CNCCc2c[nH]c3ccccc23)cc1 [CBK262126] | 93.4 | 
COC(=O)[C@@H]1Cc2ncn(C(C)C)c2CN1S(=O)(=O)c1ccc(C#N)cc1 [CBK288986] | 84 | 
COc1ccc(-n2cc(-c3ccc(C(F)(F)F)cc3)nn2)cc1OC [CBK112952] | 96.8 | 
Cc1cc2c(cc1S(=O)(=O)NCc1ccccc1)NC(=O)CO2 [CBK270159] | 85.2 | 
CC1CCc2nc(NC(=O)CC3CCN(C(=O)Cc4ccccc4)CC3)sc2C1 (centres unmarked) [CBK286509] | 86.4 | 
O=C1NC(=O)N(c2ccc(O)cc2)C(=O)/C1=C/c1ccc(OCc2ccc(Cl)cc2Cl)cc1 [CBK263842] |  | 92.1
Cc1oc2ccc(O)cc2c1C(=O)N(C)CCN1CCCCC1 [CBK282158] | 83 | 
Cc1nc(-c2ccccc2)sc1CNC(=O)C1CC1C (centres unmarked) [CBK092369] | 97 | 
O=S(=O)(NCCCn1ccnc1)c1cccs1 [CBK269912] | 95.1 | 
CC1(C)[C@H](Cc2cc(CC3CCCCC3)on2)C[C@@H]1NC(=O)N1CCOCC1 [CBK289258] | 98.6 | 
CCCOC(=O)Cn1cnc2sc(C)c(C)c2c1=O [CBK304371] | 88.9 | 
CC(C)(CN)CN(Cc1cccc(Cl)c1)C(=O)Nc1ccc2c(c1)OCO2 [CBK002482C] | 107 | 
Cc1nc(CN2CCC(O)(c3ccccc3F)CC2)c2ccccn12 [CBK282799] | 98.1 | 
Cc1cc(CNC(=O)C(C)n2cnc3ccccc32)on1 (centres unmarked) [CBK282196] | 90.7 | 
COc1ccc(C(C)C)cc1S(=O)(=O)NCCc1c(C)[nH]c2c(Cl)cccc12 [CBK266983] | 94.5 | 
Cc1cccc(C)c1OCc1nnc(SCC(=O)c2ccc(F)cc2)n1C [CBK269715] | 91.2 | 
COc1cc2c(cc1/C=C1/S/C(=N\c3ccccc3)N(CCCN3CCOCC3)C1=O)OCO2 [CBK265631] | 78.7 | 
CCN(CC)c1ccc(C(=O)Cn2c(=O)n(C(=O)c3cccc(S(C)(=O)=O)c3)c3ccccc32)cc1 [CBK106500] | 94.2 | 
COc1cccc(CN2CCN(Cc3ccco3)[C@@H](C)C2)c1 [CBK284265] | 80.3 | 

— paper PMC12040169 (PLOS Biology, 2025)
